Laboratory results published in the supplement of paper PMC10307832.

Assays:
Test in all cases: relative viability (nuclei count vs DMSO), 5 days (fraction); higher = more cells survive
[1] = compound: CN1C=C(C2=CC=CC=C21)/C=C\3/C4=C(C=CC=N4)NC3=O + Nc1ncn([C@H]2C[C@H](O)[C@@H](CO)O2)c(=O)n1 [Decitabine] (partner 2 µM)
How it was run: (§1)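 Medians of duplicate plates are given as relative viability. That measure is the nuclei count in treated wells divided by the count in vehicle wells. Counts were taken on 4× images of lung cancer cell lines in 1536-well plates, 5 days after pin-tool dosing the day after seeding with one drug alone or a fixed anchor-drug dose plus five library-drug doses (not always all listed) in √10 steps.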

[2] = compound: CN1C=C(C2=CC=CC=C21)/C=C\3/C4=C(C=CC=N4)NC3=O + CS(=O)(=O)N1CCN(Cc2cc3nc(-c4cccc5[nH]ncc45)nc(N4CCOCC4)c3s2)CC1 [Pictilisib] (partner 1 µM)
How it was run: as §1

[3] = compound: CC(=O)Nc1cccc(-n2c(=O)n(C3CC3)c(=O)c3c(Nc4ccc(I)cc4F)n(C)c(=O)c(C)c32)c1 [Trametinib] + CS(=O)(=O)CCNCc1ccc(-c2ccc3ncnc(Nc4ccc(OCc5cccc(F)c5)c(Cl)c4)c3c2)o1 [Lapatinib] (partner 2 µM)
How it was run: as §1

[4] = compound: CC(=O)Nc1cccc(-n2c(=O)n(C3CC3)c(=O)c3c(Nc4ccc(I)cc4F)n(C)c(=O)c(C)c32)c1 [Trametinib] + C[C@@H](Oc1cc(-c2cnn(C3CCNCC3)c2)cnc1N)c1c(Cl)ccc(F)c1Cl [Crizotinib] (partner 1 µM)
How it was run: as §1

| Cell Line | relative viability ([1]; first compound 0.02 µM) | relative viability ([1]; first compound 0.06325 µM) | relative viability ([1]; first compound 0.2 µM) | relative viability ([1]; first compound 0.6325 µM) | relative viability ([1]; first compound 2 µM) | relative viability ([2]; first compound 0.02 µM) | relative viability ([2]; first compound 0.06325 µM) | relative viability ([2]; first compound 0.2 µM) | relative viability ([2]; first compound 0.6325 µM) | relative viability ([2]; first compound 2 µM) | relative viability ([3]; first compound 0.0025 µM) | relative viability ([3]; first compound 0.007906 µM) | relative viability ([3]; first compound 0.025 µM) | relative viability ([3]; first compound 0.07906 µM) | relative viability ([3]; first compound 0.25 µM) | relative viability ([4]; first compound 0.0025 µM) | relative viability ([4]; first compound 0.007906 µM) | relative viability ([4]; first compound 0.025 µM) | relative viability ([4]; first compound 0.07906 µM) | relative viability ([4]; first compound 0.25 µM) |
| --- | --- | --- | --- | --- | --- | --- | --- | --- | --- | --- | --- | --- | --- | --- | --- | --- | --- | --- | --- | --- |
| NCI-H1993 | 0.532 | 0.589 | 1.3 | 0.578 | 0.529 | 0.743 | 0.772 | 0.826 | 0.809 | 0.804 | 0.824 | 0.909 | 0.651 | 0.648 | 0.682 | 0.796 | 0.716 | 0.797 | 0.674 | 0.662 |
| NCI-H727 | 0.935 | 0.886 | 0.669 | 0.979 | 0.829 | 0.363 | 0.304 | 0.208 | 0.299 | 0.484 | 0.606 | 0.415 | 0.291 | 0.297 | 0.216 | 0.381 | 0.278 | 0.279 | 0.195 | 0.206 |
| LOU-NH91 | 0.77 | 0.799 | 0.771 | 0.713 | 0.788 | 0.466 | 0.455 | 0.481 | 0.498 | 0.491 | 0.745 | 0.736 | 0.603 | 0.753 | 0.414 | 0.722 | 0.667 | 0.714 | 0.636 | 0.501 |
| NCI-H1975 | 0.396 | 0.277 | 0.356 | 0.363 | 0.347 | 0.297 | 0.255 | 0.251 | 0.246 | 0.246 | 0.816 | 0.725 | 0.534 | 0.385 | 0.292 | 0.965 | 0.937 | 0.757 | 0.499 | 0.381 |
| PC-3 [JPC-3] | 0.863 | 0.777 | 0.863 | 0.786 | 0.812 | 0.703 | 0.691 | 0.665 | 0.778 | 0.758 | 0.451 | 0.425 | 0.425 | 0.404 | 0.377 | 1.02 | 0.968 | 0.919 | 0.737 | 0.601 |
| NCI-H2126 | 0.631 | 0.585 | 0.569 | 0.536 | 0.508 | 0.486 | 0.492 | 0.431 | 0.431 | 0.415 | 0.721 | 0.675 | 0.46 | 0.703 | 0.718 | 1.01 | 0.959 | 0.788 | 0.832 | 0.749 |
| LU99A | 0.855 | 0.877 | 0.902 | 0.848 | 0.842 | 0.344 | 0.282 | 0.338 | 0.316 | 0.315 | 0.866 | 0.911 | 0.719 | 0.674 | 0.267 | 0.554 | 0.489 | 0.473 | 0.368 | 0.214 |
| NCI-H23 | 0.321 | 0.295 | 0.306 | 0.336 | 0.347 | 0.5 | 0.502 |  | 0.451 | 0.485 | 0.872 | 0.74 | 0.335 | 0.529 | 0.211 | 0.389 | 0.428 | 0.34 | 0.387 | 0.263 |
